# Data from patent publication US9248217B2, “Nanoparticle coating of surfaces” (Nanocopocia, LLC, priority 2006, dated 2016).
# Tests used:
# [1] = SEM imaging of drug particles on hydrogel; format: physicochemical; conditions: SEM at 20,000x magnification
# Procedure: For initial feasibility spray examples, griseofulvin (0.09023 g), a poorly water soluble antifungal agent, was dissolved in a mixture of ethanol (9 ml) and acetone (6 ml). A hydrogel sample, approximately 5 mm in largest diameter, removed from a borate buffer solution and placed on a metallic spray platform beneath the ElectroNanospray device's dual capillary spray head. The solution was sprayed in the cone jet mode at 4.17 kV at 5 μl/min and a distance of 15.6 mm from the hydrogel. Spray time was 20 minutes. The surface pattern seen in the SEM image shown in FIGS. 39A and 39B show a uniform, closely packed surface of approximately 200 nm particles at 20,000× magnification.
# [2] = HPLC retention time of eluted peptide before and after ElectroNanospray (structural integrity); format: physicochemical; conditions: sprayed in aqueous solution onto stents and stainless steel plates
# Procedure: General HPLC methods to quantify dexamethasone (DXM) and three peptides (luteinizing hormone releasing hormone (human; LHRH), angiotensin I, and insulin chain B) were developed using an HP 1090 system equipped with a narrowbore column (Zorbax SB C-18, 2.1 mm i.d.×150 mm, 3.5 μm) and UV detector. Data integration and processing were performed with Agilent ChemStation software (Rev. A.08.03). Peak areas were obtained by subtracting the baseline (from a “blank” injection of the sample matrix) from the experimental chromatogram. DXM was analyzed with the following method: 20/80 to 100/0 to 20/80 acetonitrile/water in 3 min and 3.01 min at 0.6 mL/min, end run at 6 min; 65° C.; 10 μL injection volume. DXM, which was detected at 243 nm, eluted at 2.27 min. The calibration curve for DXM (obtained from Alexis Biochemicals) generated with seven standard concentrations ranging from 0.5 to 30 μg/ml in acetonitrile was adequately linear (R^2=0.9999) and the limit of quantification (LOQ) was 0.5 μg/ml. The peptides (all obtained from Sigma-Aldrich) were analyzed with the following method: 20/80 to 50/50 to 20/80 acetonitrile/water buffered with 0.1% (v/v) perchloric acid in 5 min and 5.01 min at 0.4 mL/min, end run at 9 min; 65° C.; 10 μL injection volume; 210 nm detection wavelength. The retention of the peptides was measured before and after the ElectroNanospray process described earlier. LHRH eluted at 2.61 min, angiotensin I eluted at 3.54 min, and insulin B chain eluted at 4.71 min. Calibration curves for the peptides were obtained using five standard concentrations ranging from 1.25 to 50 μg/ml in a solution of 10 mM perchloric acid in water. The LOD for LHRH, angiotensin I and insulin chain B were 0.19, 0.25 and 0.34 μg/ml, respectively. System suitability and injection reproducibility tests were satisfactory.
# We identified and sourced three readily available peptides of varying chain length, LHRH, angiotensin I, and insulin B chain. These were sprayed in aqueous solution onto both stents and stainless steel plates. […]
Compound,particle size on hydrogel surface [1],HPLC retention time after spraying compared to before spraying [2]
COC1=CC(=O)C[C@@H](C)[C@]12Oc1c(Cl)c(OC)cc(OC)c1C2=O [griseofulvin],approximately 200 nm,
Luteinizing hormone releasing hormone [LHRH],,unchanged
insulin B chain,,unchanged
"angiotensin I (DRVYIHPFHL; Angiotensin-1; UniProt P01019 25-34, looked up) [model peptide obtained from Sigma-Aldrich]",,unchanged
